Experimental data published in US7074789B2, “Kinase inhibitors” (Amgen Inc., priority 1999, dated 2006).
pIC50: −log10 of the molar value.

Assays:
Type in all cases: biochemical
Kdr = target: T1, Kdr (Homo sapiens, UniProt P35968); assay: Kinase inhibition assay (33P transfer), Kdr; conditions: read-out: KDR-1
T1 construct: Kinases are expressed as either kinase domains or full length constructs; made in house
In short: (§1)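 Kinase domains or full-length kinases, GST- or His-tagged and expressed in E. coli or baculovirus/High Five cells, transferred 33PO4 from ATP onto plate-bound poly(Glu,Tyr) 4:1 or poly(Arg,Ser) 3:1. After incubation, plates were washed with 0.5% phosphoric acid and counted by liquid scintillation.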

Lck = target: T2, Lck (Homo sapiens, UniProt P06239); assay: Kinase inhibition assay (33P transfer), Lck; conditions: read-out: Lck-1
T2 construct: Kinases are expressed as either kinase domains or full length constructs; made in house
In short: as §1

EGFR = target: T3, EGFR (Homo sapiens, UniProt P00533); assay: Kinase inhibition assay (33P transfer), EGFR; conditions: Table 2, kinase inhibition class; read-out: EGFR-1
T3 construct: Kinases are expressed as either kinase domains or full length constructs; made in house
In short: (§2)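 Steps: coat wells with poly(Glu,Tyr) 4:1 or poly(Arg,Ser) 3:1; add purified kinase, [33P]ATP and inhibitor; incubate; wash with 0.5% phosphoric acid; add liquid scintillant; count. IC50 corresponds to half-maximal reduction of bound 33P.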

Tek = target: T4, Tek (Homo sapiens, UniProt Q02763); assay: Kinase inhibition assay (33P transfer), Tek; conditions: read-out: Tek-1
T4 construct: Kinases are expressed as either kinase domains or full length constructs; made in house
Description: The inhibitor compounds described herein are screened in the following manner. Kinases suitable for use in the following protocol to determine kinase activity of the compounds described herein include, -but are not limited to: Lck, Lyn, Src, Fyn, Syk, Zap-70, Itk, Tec, Btk, EGFR, ErbB2, Kdr, Flt-1, Flt-3, Tek, c-Met, InsR, and AKT.
Kinases are expressed as either kinase domains or full length constructs fused to glutathione S-transferase (GST) or polyHistidine tagged fusion proteins in either E. colior Baculovirus-High Five expression systems. They are purified to near homogeneity by affinity chromatography essentially as previously described (Lehr et al., 1996; Gish et al., 1995). In some instances, kinases are co-expressed or mixed with purified or partially purified regulatory polypeptides prior to measurement of activity.
Kinase activity and inhibition are measured essentially by established protocols (Braunwalder et al., 1996). Briefly, The transfer of ^33PO4 from ATP to the synthetic substrates poly(Glu, Tyr) 4:1 or poly(Arg, Ser) 3:1 attached to the bioactive surface of microtiter plates serves as the basis to evaluate enzyme activity. After an incubation period, the amount of phosphate transferred is measured by first washing the plate with 0.5% phosphoric acid, adding liquid scintillant, and then counting in a liquid scintillation detector. The IC50 is determined by the concentration of compound that causes a 50% reduction in the amount of […] incorporated onto the substrate bound to the plate.

AKT = target: T5, AKT (Homo sapiens, UniProt Q9Y243); assay: Kinase inhibition assay (33P transfer), AKT; conditions: Table 2, kinase inhibition class; read-out: AKT3-1
T5 construct: Kinases are expressed as either kinase domains or full length constructs; made in house
In short: as §1

Itk = target: T6, Itk (Homo sapiens, UniProt Q08881); assay: Kinase inhibition assay (33P transfer), Itk; conditions: read-out: Itk-1
T6 construct: Kinases are expressed as either kinase domains or full length constructs; made in house
T6 sequence (Q08881 1-620): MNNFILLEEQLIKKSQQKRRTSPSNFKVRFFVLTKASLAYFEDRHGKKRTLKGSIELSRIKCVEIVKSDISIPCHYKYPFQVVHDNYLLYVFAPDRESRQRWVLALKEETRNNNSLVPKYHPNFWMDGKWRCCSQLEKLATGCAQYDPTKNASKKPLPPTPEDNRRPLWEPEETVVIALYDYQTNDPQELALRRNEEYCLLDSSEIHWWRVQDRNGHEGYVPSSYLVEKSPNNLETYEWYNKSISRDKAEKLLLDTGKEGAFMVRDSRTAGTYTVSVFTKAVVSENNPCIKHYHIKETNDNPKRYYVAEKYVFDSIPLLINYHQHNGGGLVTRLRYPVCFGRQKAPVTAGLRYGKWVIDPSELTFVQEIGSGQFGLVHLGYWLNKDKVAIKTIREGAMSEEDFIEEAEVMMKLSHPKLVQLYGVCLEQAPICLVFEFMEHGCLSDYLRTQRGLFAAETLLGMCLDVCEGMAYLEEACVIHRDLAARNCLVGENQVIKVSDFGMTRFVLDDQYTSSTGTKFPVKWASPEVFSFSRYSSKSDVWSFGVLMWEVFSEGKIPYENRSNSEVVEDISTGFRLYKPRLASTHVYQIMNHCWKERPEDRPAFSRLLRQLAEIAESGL
In short: as §2

c-Met = target: T7, c-Met (Homo sapiens, UniProt P08581); assay: Kinase inhibition assay (33P transfer), c-Met; conditions: Table 2, kinase inhibition class; read-out: Met-1
T7 construct: Kinases are expressed as either kinase domains or full length constructs; made in house
In short: as §2

Zap-70 = target: T8, Zap-70 (Homo sapiens, UniProt P43403); assay: Kinase inhibition assay (33P transfer), Zap-70; conditions: read-out: Zap-1
T8 construct: Kinases are expressed as either kinase domains or full length constructs; made in house
T8 sequence (P43403 1-619): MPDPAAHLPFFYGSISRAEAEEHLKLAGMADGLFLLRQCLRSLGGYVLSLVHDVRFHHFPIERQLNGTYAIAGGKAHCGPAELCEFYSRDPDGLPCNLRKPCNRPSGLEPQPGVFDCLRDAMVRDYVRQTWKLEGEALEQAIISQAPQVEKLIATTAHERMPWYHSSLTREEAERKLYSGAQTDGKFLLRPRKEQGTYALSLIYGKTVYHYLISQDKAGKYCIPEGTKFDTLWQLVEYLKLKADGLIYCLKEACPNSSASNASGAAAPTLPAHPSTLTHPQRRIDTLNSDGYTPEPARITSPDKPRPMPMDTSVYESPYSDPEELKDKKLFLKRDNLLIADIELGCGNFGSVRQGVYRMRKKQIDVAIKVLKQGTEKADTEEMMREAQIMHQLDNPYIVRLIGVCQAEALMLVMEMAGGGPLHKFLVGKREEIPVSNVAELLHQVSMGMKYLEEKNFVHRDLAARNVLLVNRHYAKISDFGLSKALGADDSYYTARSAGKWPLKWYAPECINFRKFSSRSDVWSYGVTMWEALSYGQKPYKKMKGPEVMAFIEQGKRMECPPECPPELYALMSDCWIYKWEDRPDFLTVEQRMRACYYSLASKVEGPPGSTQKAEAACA
In short: as §1

T2 sequence (P06239 whole entry, species assumed, the tested form may be a part): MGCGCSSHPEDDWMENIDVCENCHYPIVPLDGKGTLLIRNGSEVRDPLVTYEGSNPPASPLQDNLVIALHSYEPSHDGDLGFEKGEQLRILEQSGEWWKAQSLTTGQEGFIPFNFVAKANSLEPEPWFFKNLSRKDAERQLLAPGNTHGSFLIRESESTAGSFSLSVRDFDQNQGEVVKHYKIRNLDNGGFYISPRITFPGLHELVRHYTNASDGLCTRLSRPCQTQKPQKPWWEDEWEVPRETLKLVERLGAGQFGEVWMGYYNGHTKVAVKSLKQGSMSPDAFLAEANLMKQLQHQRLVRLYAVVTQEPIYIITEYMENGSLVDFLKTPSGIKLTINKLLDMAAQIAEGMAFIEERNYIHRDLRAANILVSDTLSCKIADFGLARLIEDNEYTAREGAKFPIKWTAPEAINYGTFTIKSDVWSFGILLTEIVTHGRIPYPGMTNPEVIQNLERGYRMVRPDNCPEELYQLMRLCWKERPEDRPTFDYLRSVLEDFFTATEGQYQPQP
T5 sequence (Q9Y243 whole entry, the tested form may be a part): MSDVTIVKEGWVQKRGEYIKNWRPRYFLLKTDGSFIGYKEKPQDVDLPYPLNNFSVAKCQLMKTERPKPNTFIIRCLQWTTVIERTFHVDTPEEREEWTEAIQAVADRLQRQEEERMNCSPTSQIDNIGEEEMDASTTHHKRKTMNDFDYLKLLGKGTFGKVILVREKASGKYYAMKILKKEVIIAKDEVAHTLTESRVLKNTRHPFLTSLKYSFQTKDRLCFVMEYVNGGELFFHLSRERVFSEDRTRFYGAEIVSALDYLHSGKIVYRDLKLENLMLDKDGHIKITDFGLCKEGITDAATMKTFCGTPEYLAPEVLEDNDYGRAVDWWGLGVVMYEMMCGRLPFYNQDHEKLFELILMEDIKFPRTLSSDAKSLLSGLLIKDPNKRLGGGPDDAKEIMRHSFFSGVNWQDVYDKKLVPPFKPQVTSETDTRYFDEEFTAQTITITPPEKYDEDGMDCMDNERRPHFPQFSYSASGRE
T4 sequence (Q02763 23-1124, species assumed): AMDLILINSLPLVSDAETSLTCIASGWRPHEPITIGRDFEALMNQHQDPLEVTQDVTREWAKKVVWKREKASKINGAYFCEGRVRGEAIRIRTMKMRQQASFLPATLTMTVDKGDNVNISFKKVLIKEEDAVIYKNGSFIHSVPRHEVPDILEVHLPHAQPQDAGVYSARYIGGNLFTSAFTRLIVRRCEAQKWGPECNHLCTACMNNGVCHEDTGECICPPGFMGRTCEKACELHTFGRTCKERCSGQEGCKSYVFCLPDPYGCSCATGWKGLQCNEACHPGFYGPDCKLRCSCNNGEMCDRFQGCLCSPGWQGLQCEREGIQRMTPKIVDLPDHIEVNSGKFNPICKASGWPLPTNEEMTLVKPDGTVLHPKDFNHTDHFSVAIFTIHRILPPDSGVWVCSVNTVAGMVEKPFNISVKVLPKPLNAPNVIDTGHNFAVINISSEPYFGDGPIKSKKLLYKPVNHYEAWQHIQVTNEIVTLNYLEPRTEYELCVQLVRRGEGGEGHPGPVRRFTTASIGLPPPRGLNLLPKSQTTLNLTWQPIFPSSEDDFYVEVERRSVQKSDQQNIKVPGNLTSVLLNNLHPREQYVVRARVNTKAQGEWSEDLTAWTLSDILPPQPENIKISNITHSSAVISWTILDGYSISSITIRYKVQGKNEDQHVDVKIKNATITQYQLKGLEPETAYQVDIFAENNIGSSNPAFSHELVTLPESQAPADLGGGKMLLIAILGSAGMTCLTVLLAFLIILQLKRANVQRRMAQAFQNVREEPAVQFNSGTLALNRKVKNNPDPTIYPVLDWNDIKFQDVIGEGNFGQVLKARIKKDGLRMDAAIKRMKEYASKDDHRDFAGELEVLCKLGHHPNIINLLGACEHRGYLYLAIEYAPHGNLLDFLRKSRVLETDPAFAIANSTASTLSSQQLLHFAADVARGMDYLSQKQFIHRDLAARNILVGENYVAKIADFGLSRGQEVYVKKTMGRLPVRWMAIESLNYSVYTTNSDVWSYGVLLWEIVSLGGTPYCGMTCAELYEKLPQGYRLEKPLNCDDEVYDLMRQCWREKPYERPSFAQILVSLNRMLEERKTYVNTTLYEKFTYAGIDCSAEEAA
T1 sequence (P35968 20-1356, species assumed): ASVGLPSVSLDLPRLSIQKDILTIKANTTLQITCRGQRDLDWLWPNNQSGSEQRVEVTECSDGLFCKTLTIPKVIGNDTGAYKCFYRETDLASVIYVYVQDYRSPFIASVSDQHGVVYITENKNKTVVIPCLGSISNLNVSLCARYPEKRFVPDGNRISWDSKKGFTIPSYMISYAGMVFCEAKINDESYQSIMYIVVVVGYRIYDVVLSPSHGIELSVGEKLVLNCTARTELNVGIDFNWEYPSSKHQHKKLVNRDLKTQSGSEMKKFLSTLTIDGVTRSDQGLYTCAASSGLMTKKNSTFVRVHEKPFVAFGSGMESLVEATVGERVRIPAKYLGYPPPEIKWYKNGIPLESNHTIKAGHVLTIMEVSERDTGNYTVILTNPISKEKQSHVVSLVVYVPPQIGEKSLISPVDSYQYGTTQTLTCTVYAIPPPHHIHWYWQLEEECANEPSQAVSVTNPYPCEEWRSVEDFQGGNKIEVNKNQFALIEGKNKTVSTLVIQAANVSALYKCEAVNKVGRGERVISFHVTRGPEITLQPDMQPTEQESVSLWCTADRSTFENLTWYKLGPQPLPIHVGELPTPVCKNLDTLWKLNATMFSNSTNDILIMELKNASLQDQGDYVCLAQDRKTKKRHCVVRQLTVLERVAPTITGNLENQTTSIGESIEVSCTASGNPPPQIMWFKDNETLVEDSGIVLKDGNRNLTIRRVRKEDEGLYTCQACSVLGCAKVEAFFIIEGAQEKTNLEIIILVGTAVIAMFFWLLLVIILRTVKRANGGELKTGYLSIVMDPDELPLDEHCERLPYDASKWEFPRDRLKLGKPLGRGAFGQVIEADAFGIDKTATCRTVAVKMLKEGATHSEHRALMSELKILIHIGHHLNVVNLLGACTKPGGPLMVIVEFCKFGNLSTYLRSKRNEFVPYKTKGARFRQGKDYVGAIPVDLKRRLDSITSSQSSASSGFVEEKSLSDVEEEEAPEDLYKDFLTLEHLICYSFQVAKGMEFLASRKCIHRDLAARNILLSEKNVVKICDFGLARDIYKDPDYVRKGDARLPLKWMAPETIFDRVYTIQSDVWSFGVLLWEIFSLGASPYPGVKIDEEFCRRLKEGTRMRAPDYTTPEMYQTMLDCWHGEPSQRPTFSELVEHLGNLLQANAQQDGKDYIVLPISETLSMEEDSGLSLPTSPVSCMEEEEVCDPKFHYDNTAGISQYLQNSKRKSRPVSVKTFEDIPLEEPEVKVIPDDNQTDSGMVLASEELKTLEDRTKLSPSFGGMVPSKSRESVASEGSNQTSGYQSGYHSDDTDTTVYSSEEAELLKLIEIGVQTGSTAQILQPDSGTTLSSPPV
T7 sequence (P08581 25-1390): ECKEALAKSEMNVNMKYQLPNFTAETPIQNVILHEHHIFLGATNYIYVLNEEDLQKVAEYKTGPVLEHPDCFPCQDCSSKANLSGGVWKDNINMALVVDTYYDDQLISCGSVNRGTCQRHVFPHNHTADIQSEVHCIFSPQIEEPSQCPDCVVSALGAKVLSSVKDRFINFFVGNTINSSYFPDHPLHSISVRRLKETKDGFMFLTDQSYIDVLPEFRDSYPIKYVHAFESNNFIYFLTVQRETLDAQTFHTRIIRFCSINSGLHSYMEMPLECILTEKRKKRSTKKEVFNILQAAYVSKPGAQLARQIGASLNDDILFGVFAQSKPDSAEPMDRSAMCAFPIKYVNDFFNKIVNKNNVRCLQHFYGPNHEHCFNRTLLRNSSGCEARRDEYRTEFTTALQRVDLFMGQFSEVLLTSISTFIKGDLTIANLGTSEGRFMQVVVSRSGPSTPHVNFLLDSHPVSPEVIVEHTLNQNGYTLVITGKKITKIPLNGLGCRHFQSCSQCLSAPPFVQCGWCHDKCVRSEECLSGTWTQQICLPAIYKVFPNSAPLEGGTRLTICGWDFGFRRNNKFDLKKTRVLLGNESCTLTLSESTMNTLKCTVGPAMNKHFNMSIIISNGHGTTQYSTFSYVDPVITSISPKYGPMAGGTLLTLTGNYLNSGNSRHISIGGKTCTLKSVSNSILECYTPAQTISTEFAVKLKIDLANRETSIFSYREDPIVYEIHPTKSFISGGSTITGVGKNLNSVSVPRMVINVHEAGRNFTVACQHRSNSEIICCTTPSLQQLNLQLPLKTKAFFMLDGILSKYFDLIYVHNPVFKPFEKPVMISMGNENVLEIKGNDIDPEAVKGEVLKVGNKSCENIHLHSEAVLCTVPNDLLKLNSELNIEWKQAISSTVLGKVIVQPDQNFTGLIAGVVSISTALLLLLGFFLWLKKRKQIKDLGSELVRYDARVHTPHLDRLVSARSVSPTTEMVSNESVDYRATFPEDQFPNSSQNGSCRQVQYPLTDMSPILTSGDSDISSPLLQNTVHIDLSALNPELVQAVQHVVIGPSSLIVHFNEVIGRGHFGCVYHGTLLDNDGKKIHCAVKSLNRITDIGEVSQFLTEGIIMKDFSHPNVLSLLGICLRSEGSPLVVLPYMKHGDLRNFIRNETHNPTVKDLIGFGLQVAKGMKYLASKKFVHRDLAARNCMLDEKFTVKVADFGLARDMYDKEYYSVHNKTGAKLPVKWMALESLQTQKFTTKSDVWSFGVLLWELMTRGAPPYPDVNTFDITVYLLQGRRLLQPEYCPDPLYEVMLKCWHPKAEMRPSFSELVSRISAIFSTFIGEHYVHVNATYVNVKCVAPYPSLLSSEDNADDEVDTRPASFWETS

| pIC50 (Kdr) | pIC50 (Lck) | pIC50 (EGFR) | pIC50 (Tek) | pIC50 (AKT) | pIC50 (Itk) | pIC50 (c-Met) | pIC50 (Zap-70) | SMILES |
| --- | --- | --- | --- | --- | --- | --- | --- | --- |
| > 6.01 | 4.96 to 5.07 | < 4.96 | < 4.96 | < 4.96 | < 4.96 | < 4.96 | < 4.96 | COc1cc(Nc2ncnc(-c3ccc(NCCCO)nc3)n2)cc(OC)c1OC [Compound 497] |
| < 4.92 | < 4.92 | < 4.92 | 5.19 to 5.97 | < 4.92 | < 4.92 | < 4.92 | < 4.92 | O=c1[nH]c2ccccc2n1-c1ncnc(Nc2ccc(Cl)cc2Cl)n1 [Compound 504] |
| < 4.92 | < 4.92 | < 4.92 | 5.03 to 5.19 | < 4.92 | < 4.92 | < 4.92 | 4.92 to 5.03 | O=c1[nH]c2ccccc2n1-c1ncnc(Nc2ccc(C(F)(F)F)cc2)n1 [Compound 505] |
| < 4.99 | 4.99 to 5.10 | < 4.99 | 5.10 to 5.26 | < 4.99 | < 4.99 | < 4.99 | < 4.99 | O=c1[nH]c2ccccc2n1-c1ncnc(Nc2cc(C(F)(F)F)cc(C(F)(F)F)c2)n1 [Compound 506] |
| > 6.16 | 5.39 to 6.16 | < 5.11 | 5.11 to 5.22 | < 5.11 | < 5.11 | < 5.11 | < 5.11 | COc1cc(Nc2ncnc(-n3c(NCc4ccccn4)nc4ccccc43)n2)cc(OCCN2CCOCC2)c1OC [Compound 507] |
| 5.17 to 5.95 | 5.17 to 5.95 | < 4.90 | 5.01 to 5.17 | < 4.90 | 5.01 to 5.17 | < 4.90 | < 4.90 | O=c1[nH]c2ccccc2n1-c1ncnc(Nc2cnc3ccccc3c2)n1 [Compound 508] |
| 5.01 to 5.18 | 5.01 to 5.18 | < 4.90 | 5.01 to 5.18 | < 4.90 | 5.01 to 5.18 | 4.90 to 5.01 | < 4.90 | CC(C)(C)c1ccc(Nc2ncnc(-n3c(N)nc4ccccc43)n2)cc1 [Compound 525] |
| > 5.94 | 5.16 to 5.94 | 5.16 to 5.94 | 5.16 to 5.94 | 5.00 to 5.16 | 5.16 to 5.94 | 5.16 to 5.94 | 5.16 to 5.94 | Nc1nc2ccccc2n1-c1ncnc(Nc2ccc3c(c2)OCO3)n1 [Compound 526] |
| 5.19 to 5.97 | 5.19 to 5.97 | 5.19 to 5.97 | 5.19 to 5.97 | 5.19 to 5.97 | 5.19 to 5.97 | 5.19 to 5.97 | 5.19 to 5.97 | Nc1nc2ccccc2n1-c1ncnc(Nc2ccc(Cl)c(Cl)c2)n1 [Compound 528] |
| 5.21 to 5.99 | 5.21 to 5.99 | < 4.94 | 5.05 to 5.21 | < 4.94 | 4.94 to 5.05 | < 4.94 | < 4.94 | COc1cc(Nc2ncnc(-c3cccc4ccccc34)n2)cc(OC)c1OC [Compound 611] |
| 4.98 to 5.75 | < 4.70 | < 4.70 | < 4.70 | 4.98 to 5.75 | 4.81 to 4.98 | < 4.70 | < 4.70 | Nc1ncnc(-n2c(N)nc3ccccc32)n1 [Compound 646] |
| 5.21 to 5.99 | < 4.93 | 5.21 to 5.99 | < 4.93 | < 4.93 | < 4.93 | < 4.93 | < 4.93 | Nc1nc2ccccc2n1-c1ncnc(Nc2ccc(OC(F)(F)F)cc2)n1 [Compound 647] |
| 5.14 to 5.92 | < 4.87 | < 4.87 | < 4.87 | < 4.87 | < 4.87 | < 4.87 | < 4.87 | COc1ccc(Nc2ncnc(-n3c(N)nc4ccccc43)n2)cn1 [Compound 648] |
| < 4.90 | < 4.90 | < 4.90 | < 4.90 | < 4.90 | < 4.90 | < 4.90 | < 4.90 | Nc1nc2ccccc2n1-c1ncnc(N2C(=O)c3ccccc3C2=O)n1 [Compound 653] |
| 5.01 to 5.17 | 5.01 to 5.17 | 5.17 to 5.95 | 5.01 to 5.17 | < 4.90 | < 4.90 | 5.01 to 5.17 | 5.17 to 5.95 | O=c1[nH]c2ccccc2n1-c1ncnc(Nc2nccc3ccccc23)n1 [Compound 689] |
| > 6.08 | < 5.03 | < 5.03 | < 5.03 | < 5.03 | < 5.03 | < 5.03 | < 5.03 | COc1cc(Nc2ncnc(-n3c(OCc4ccccn4)nc4ccccc43)n2)cc(OC)c1OC [Compound 690] |
| 5.30 to 6.08 | 5.30 to 6.08 | 5.30 to 6.08 | < 5.03 | < 5.03 | 5.14 to 5.30 | 5.30 to 6.08 | < 5.03 | COc1cc(Nc2ncnc(Nc3ccc(NC(=O)O[C@@H]4CCOC4)cc3)n2)cc(OC)c1OC [Compound 693] |
| 5.30 to 6.08 | 5.30 to 6.08 | 5.30 to 6.08 | 5.03 to 5.14 | < 5.03 | 5.14 to 5.30 | < 5.03 | < 5.03 | COc1cc(Nc2ncnc(Nc3cccc(NC(=O)O[C@@H]4CCOC4)c3)n2)cc(OC)c1OC [Compound 694] |
| > 6.00 | > 6.00 | 5.06 to 5.23 | 5.06 to 5.23 | < 4.95 | 5.23 to 6.00 | < 4.95 | < 4.95 | COc1cc(Nc2ncnc(Nc3cccc4ncccc34)n2)cc(OC)c1OC [Compound 695] |
| < 4.94 | < 4.94 | < 4.94 | < 4.94 | < 4.94 | < 4.94 | < 4.94 | < 4.94 | COc1cc(Nc2ncnc(Nc3ncnc4[nH]cnc34)n2)cc(OC)c1OC [Compound 696] |
| > 5.99 | > 5.99 | 5.05 to 5.22 | 4.94 to 5.05 | < 4.94 | 5.22 to 5.99 | < 4.94 | < 4.94 | COc1cc(Nc2ncnc(Nc3ccc(C(C)=O)cc3)n2)cc(OC)c1OC [Compound 698] |
